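Test compounds were applied to cells in 96-well plates for 48 hours at 5 doses. The concentration for full growth arrest is given as TGI.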
Experiments:
Experiment in all cases: inhibition of tumour cell growth, NCI panel, 48 h
[1] = test system: ACHN renal
[2] = test system: DU-145 prostate
[3] = test system: HCT-15 colon
[4] = test system: LOX IMVI melanoma
[5] = test system: M14 melanoma
[6] = test system: NCI-H522 lung
[7] = test system: SK-MEL-2 melanoma
[8] = test system: TK-10 renal
[9] = test system: UO-31 renal
[10] = test system: COLO 205 colon

| SMILES | TGI [1] [µM] | TGI [2] [µM] | TGI [3] [µM] | TGI [4] [µM] | TGI [5] [µM] | TGI [6] [µM] | TGI [7] [µM] | TGI [8] [µM] | TGI [9] [µM] | TGI [10] [µM] |
| --- | --- | --- | --- | --- | --- | --- | --- | --- | --- | --- |
| Oc1ccc(-c2cc(-c3c(O)cc(O)cc3O)on2)cc1 | > 100 | > 100 | > 100 | > 100 | > 100 | > 100 | > 100 | > 100 | > 100 | – |
| COC(=O)C(=O)C(C(=O)C(=O)Nc1ccccc1C(=O)OC)c1nc2ccc(C(=O)c3ccccc3)cc2[nH]c1=O (stereo not given) | > 100 | – | > 100 | > 100 | > 100 | > 100 | > 100 | > 100 | > 100 | – |
| O=C(CCN1CCCCC1CCO)Nc1ccc2c(c1)C(=O)c1ccc(NC(=O)CCN3CCCCC3CCO)cc1C2=O (stereo not given) | 24.9 | – | 24.6 | 13.2 | – | 5.32 | 7.27 | 14.6 | > 100 | 10.4 |
| Cc1ncc([N+](=O)[O-])n1CCN(C)CCCCn1ccnc1[N+](=O)[O-] | > 100 | > 100 | > 100 | > 100 | > 100 | – | > 100 | > 100 | > 100 | > 100 |
| N/C(CC/C(N)=N\O)=N\O | > 100 | > 100 | > 100 | > 100 | > 100 | > 100 | > 100 | > 100 | > 100 | – |
| O=S(=O)(O)c1cc(Cl)c(O)c2ncc(Cl)cc12 | > 100 | > 100 | > 100 | > 100 | > 100 | – | > 100 | – | > 100 | > 100 |
| CC1=C/C(=C(\c2ccc(N(C)C)cc2)c2ccc([N+](C)(C)C)cc2)C=CC1=[N+](C)C | 43.8 | – | > 100 | 17.7 | 43 | 31.2 | 35 | 14.9 | 78.1 | 85.4 |
| COc1cc2c(cc1O)[C@H](C)C(c1ccc(Cl)cc1)O2 (stereo not given in full) | 27.8 | – | 27.7 | 29.4 | 55.1 | 27.3 | 56 | 78.8 | 79.4 | > 100 |
| COc1ccc(C[C@@H]2CN(C(=O)c3ccccc3)[C@H](Cc3ccc(O)cc3)CN2C(=O)c2ccccc2)cc1Br | > 100 | > 100 | > 100 | > 100 | > 100 | – | > 100 | > 100 | > 100 | > 100 |
| On1c(-c2ccccc2)c(-c2c(-c3ccccc3)n(O)c3ccccc23)c2ccccc21 | 87.5 | – | > 100 | 73.2 | – | 52.3 | 59.2 | > 100 | 53 | – |
| CSc1n[nH]c(N)c1C(=O)Nc1ccc(Cl)cc1 | – | > 100 | > 100 | > 100 | > 100 | > 100 | > 100 | > 100 | > 100 | > 100 |
| CCOC(=O)NNC(=O)NCCNC(=O)NNC(=O)OCC | – | > 100 | > 100 | > 100 | > 100 | > 100 | > 100 | > 100 | > 100 | > 100 |
| c1ccc2[nH]c(-c3nc4ccccc4o3)nc2c1 | > 100 | – | > 100 | > 100 | > 100 | > 100 | > 100 | > 100 | > 100 | > 100 |
| CS(=O)(=O)NNS(=O)(=O)c1ccc(Br)cc1 | > 100 | – | > 100 | > 100 | > 100 | > 100 | > 100 | > 100 | > 100 | > 100 |
| Fc1cccc(F)c1C1SCC2=Nc3ccccc3CN21 (stereo not given) | > 100 | > 100 | > 100 | > 100 | > 100 | – | – | > 100 | > 100 | > 100 |
| CCOC(=O)C1NCCc2c1[nH]c1ccccc21 (stereo not given) | – | > 10 | > 10 | – | > 10 | > 10 | – | > 10 | – | > 10 |
| c1cc(-c2cscc2-c2ccsc2)cs1 | > 100 | > 100 | > 100 | > 100 | > 100 | – | 28.4 | > 100 | > 100 | > 100 |
| COc1ccc(C2SCC(=O)N2N=C2NC(=O)CC(=O)N2)cc1 (stereo not given) | > 100 | > 100 | > 100 | – | > 100 | > 100 | > 100 | > 100 | > 100 | > 100 |
| COC(=O)c1ccc(CN2CCc3c([nH]c4ccccc34)C2CO)o1 (stereo not given) | – | > 10 | > 10 | – | > 10 | > 10 | – | > 10 | – | > 10 |
| CN1CC(c2ccccc2)=Cc2c1ccc(N)c2N=N | > 100 | – | > 100 | > 100 | > 100 | > 100 | > 100 | > 100 | > 100 | – |
| COc1c(C2(c3ccc(F)cc3)SCCCS2)c(=O)c1=O | > 100 | > 100 | > 100 | > 100 | > 100 | – | > 100 | > 100 | > 100 | > 100 |
| Oc1c(OCc2nnc(CCCCCCCCc3nnc(COc4ccc5ccccc5c4O)n3Nc3ccccc3)n2Nc2ccccc2)ccc2ccccc12 | 68.7 | 31.9 | 30 | – | 10.9 | 27.3 | 27.6 | > 64.7 | 19.6 | 1.32 |
| Cc1c(C)c(C)c(-n2c(=O)n(C)c(=O)n2C(C)(C)C)c(C)c1C | > 100 | > 100 | > 100 | > 100 | > 100 | – | > 100 | > 100 | > 100 | > 100 |
| Cc1cc(Br)c(N2C3=C(CC4=C2CCCC4=O)C(=O)CCC3)c(Br)c1 | > 100 | – | > 100 | > 100 | > 100 | – | – | > 100 | > 100 | – |

From PubChem BioAssay (NCI)
